Laboratory results taken from patent US11878972B2, “Treatment of neurological disorders” (TORQUR AG, priority 2016, dated 2024).

Tests used:
pPKB S473 in A2058 cells = assay: In-cell Western blot, pPKB S473; format: cell-based; conditions: treated for 1 hour, normalized to α-tubulin
Experimental: (§1) Cells are fixed with 4% paraformaldehyde for 30 minutes at room temperature, washed 2 times with 1% BSA in PBS, permeabilized with 0.1% Triton X-100 in PBS/1% BSA for 30 minutes at room temperature and blocked with 5% goat serum in PBS/1% BSA/0.1% Triton X-100 for 30 minutes at room temperature. […] Cells are washed 3 times 5 minutes with PBS/1% BSA/0.1% triton and plate scanned with the Odyssey Infrared Scanning system using both 700 and 800 nm channels. […] To correct for background staining in the data analysis wells are treated only with secondary antibodies.
(§2) For data analysis the mean background signal from channel 700 nm and 800 nm are subtracted from each signal in channel 700 nm and 800 nm, respectively.
(§3) IC50 values of each compound are determined by plotting the normalized pPBK S473 and pS6 S235/S236 signals, respectively, versus the compound concentrations (in logarithmic scale) and then by fitting a sigmoidal dose-response curve with variable slope to the data using GraphPad™ Prism.

[1] = test system: pS6 S235/S236 in A2058 cells; assay: In-cell Western blot, pS6 S235/S236; format: cell-based; conditions: treated for 1 hour, normalized to α-tubulin
Experimental: as §1, §2, §3

[2] = test system: female NMRI mice, nonepileptic (sham-SE) and epileptic (pilo-SE); assay: Maximal electroshock seizure threshold test (MEST); format: in vivo, mouse; conditions: for CC50 / threshold increase: Phenobarbital; for increase of the seizure threshold in MEST: 5 mg/kg rapamycin; for increase of the threshold: rapamycin after intraperitoneal injections
Experimental: A total of 166 adult female NMRI mice were used obtained from Charles River (Sulzfeld, Germany) at a weight range of 21-25 g (mice). Animals were kept under the following conditions: Housing: Animals were housed in groups of max. 8 mice under controlled conditions (temperature: 22±1° C.; humidity: 50% 60%/), under a 12-h light-dark cycle (lights on at 6:00 a.m.). Feeding: Standard laboratory chow (Altromin 1324 standard diet, Altromin Spezialfutter GmbH, Lage, Germany) was provided ad libitum. Drinking water: Tap water was provided ad libitum.
The MEST determines a population seizure threshold in groups of ˜20 animals and not the threshold for an individual animal. In the present study, the MEST was determined by a staircase procedure as previously described. A stimulator (BMT Medizintechnik, Berlin, Germany) that delivered a constant current (adjustable from 1-200 mA regardless of the impedance of the animal) with sinusoidal pulses (50/sec) for 0.2 sec was used.
Current administration was performed via bilateral transcorneal stimulation (using copper electrodes). Before transcorneal stimulation, a drop of tetracaine solution (2%) was administered to the eyes of the mouse for local anesthesia. Two minutes later, the mouse was restrained by hand to press the copper electrodes on both corneas while the stimulus was applied by stepping on a foot pedal switch connected with the stimulator. Electrodes were covered with soft leather and soaked with saline before each current application. […] The first stimulation was started with a current near to the control threshold.
3 (HCl): 40/100 mg in 10 ml (Suspension; 5% PEG 400 and 2% Tween 80, HPBCD (10%6)) • Cpd. 8 (HCl): 12.5/25 mg in 10 ml (5% PEG 400 and 2% Tween 80, HPBCD (10%))
Statistical analysis were calculated using Student's t-test. All tests were used two-sided; a P<0.05 was considered significant.
We performed no special tests for the determination of adverse effects. Mice were observed about 30 min after injection in their home cages for obvious sedation or reduction of wellbeing. Five minutes before electrical stimulation mice were again observed in their home cages and two minutes before stimulation during handling procedure for treatment with local anaesthesia. Every obvious variation from normal behavior was noted. Only phenobarbital induced noticeable sedation which lasted for more than 60 min. All other test drugs (including vehicle solutions) were tolerated without any obvious adverse effects.

[3] = 50 mg/kg Levetiracetam i.p., pretreatment 1 h

C[C@H]1COCCN1c1nc(-c2cnc(N)nc2C(F)F)nc(N2CCOCC2)n1 [Compound 9, (S)-4-(difluoromethyl)-5-(4-(3-methylmorpholino)-6-morpholino-1,3,5-triazin-2-yl)pyrimidin-2-amine]
IC50 (pPKB S473 in A2058 cells; Homo sapiens): 35 nM
IC50 ([1]; Homo sapiens): 72 nM

Nc1cc(C(F)F)c(-c2nc(N3CCNCC3)nc(N3CCOCC3)n2)cn1 [Compound 12, 4-(difluoromethyl)-5-(4-morpholino-6-(piperazin-1-yl)-1,3,5-triazin-2-yl)pyridin-2-amine]
IC50 (pPKB S473 in A2058 cells): 219 nM
IC50 [1]: 407 nM

Nc1ncc(-c2nc(N3CCNCC3)nc(N3CCOCC3)n2)c(C(F)F)n1 [Compound 13, 4-(difluoromethyl)-5-(4-morpholino-6-(piperazin-1-yl)-1,3,5-triazin-2-yl)pyrimidin-2-amine]
IC50 (pPKB S473 in A2058 cells): 37 nM
IC50 [1]: 120 nM

Nc1cc(C(F)F)c(-c2cc(N3CCOCC3)nc(N3CCOCC3)n2)cn1 [Compound 16, 4-(difluoromethyl)-5-(2,6-dimorpholinopyrimidin-4-yl)pyridin-2-amine]
IC50 (pPKB S473 in A2058 cells; Homo sapiens): 207 nM
IC50 ([1]; Homo sapiens, A2058, 1 h): 184 nM

Nc1ncc(-c2cc(N3CCOCC3)nc(N3CCOCC3)n2)c(C(F)F)n1 [Compound 17, 4′-(difluoromethyl)-2,6-dimorpholino-[4,5′-bipyrimidin]-2′-amine]
IC50 ([1]; Homo sapiens, A2058, 1 h): 149 nM

Nc1cc(C(F)F)c(-c2nc(N3CCOCC3)cc(N3CCOCC3)n2)cn1 [Compound 18, 4-(difluoromethyl)-5-(4,6-dimorpholinopyrimidin-2-yl)pyridin-2-amine]
IC50 (pPKB S473 in A2058 cells; Homo sapiens): 243 nM
IC50 ([1]; Homo sapiens, A2058, 1 h): 256 nM

Nc1cc(C(F)F)c(-c2nc(N3CCOCC3)nc(N3CCSCC3)n2)cn1 [Compound 20, 4-(difluoromethyl)-5-(4-morpholino-6-thiomorpholino-1,3,5-triazin-2-Yl)pyridin-2-amine]
IC50 (pPKB S473 in A2058 cells; Homo sapiens, A2058, 1 h): 146 nM
IC50 ([1]; Homo sapiens, A2058, 1 h): 250 nM

Nc1ncc(-c2nc(N3CCOCC3)nc(N3CCSCC3)n2)c(C(F)F)n1 [Compound 21, 4-(difluoromethyl)-5-(4-morpholino-6-thiomorpholino-1,3,5-triazin-2-yl)pyrimidin-2-amine]
IC50 (pPKB S473 in A2058 cells; Homo sapiens, A2058, 1 h): 57 nM
IC50 ([1]; Homo sapiens, A2058, 1 h): 216 nM

C[C@H]1COCCN1c1cc(-c2cnc(N)cc2C(F)F)nc(N2CCOCC2)n1 [Compound 27, (S)-4-(difluoromethyl)-5-(6-(3-methylmorpholino)-2-morpholinopyrimidin-4-yl)pyridin-2-amine]
IC50 (pPKB S473 in A2058 cells; Homo sapiens): 614 nM
IC50 ([1]; Homo sapiens): 766 nM

CC[C@H]1COCCN1c1nc(-c2cnc(N)cc2C(F)F)nc(N2CCOC[C@H]2C)n1 [Compound 85, 4-(difluoromethyl)-5-[4-[(3S)-3-ethylmorpholin-4-yl]-6-[(3R)-3-methylmorpholin-4-yl]-1,3,5-triazin-2-yl]pyridin-2-amine]
IC50 ([1]; Homo sapiens, A2058, 1 h): 241 nM

CC[C@@H]1COCCN1c1nc(-c2cnc(N)cc2C(F)F)nc(N2CCOC[C@H]2C)n1 [Compound 86, 4-(difluoromethyl)-5-[4-[(3R)-3-ethylmorpholin-4-yl]-6-[(3R)-3-methylmorpholin-4-yl]-1,3,5-triazin-2-yl]pyridin-2-amine]
IC50 (pPKB S473 in A2058 cells; Homo sapiens, A2058, 1 h): 231 nM

CC[C@@H](C(N)=O)N1CCCC1=O [Levetiracetam, reference compound]
Threshold difference between nonepileptic and epileptic [2, 3]: −4%
Threshold difference between vehicle and drug threshold, nonepileptic [2, 3]: 21%

CCC1(c2ccccc2)C(=O)NC(=O)NC1=O [Phenobarbital, reference compound]
CC50 ([2]; epileptic mice): 26.56 mA
threshold increase ([2]; epileptic mice): 66%
CC50 ([2]; nonepileptic mice): 25.7 mA
threshold increase ([2]; nonepileptic mice): 69%
duration of noticeable sedation ([2]; mice observed in home cages after injection): more than 60 min

CO[C@H]1C[C@@H]2CC[C@@H](C)[C@@](O)(O2)C(=O)C(=O)N2CCCC[C@H]2C(=O)O[C@H]([C@H](C)C[C@@H]2CC[C@@H](O)[C@H](OC)C2)CC(=O)[C@H](C)/C=C(\C)[C@@H](O)[C@@H](OC)C(=O)[C@H](C)C[C@H](C)/C=C/C=C/C=C/1C [rapamycin, reference compound]
increase of the seizure threshold in MEST ([2]; epileptic mice): 5%
increase of the seizure threshold in MEST ([2]; nonepileptic mice): 13%
increase of the threshold ([2]; epileptic mice): no effect
increase of the threshold ([2]; nonepileptic mice): 20%
